The NIST ThermoML archive (doi:10.1016/j.jct.2018.05.004)

Assay: mn = molality of the nth substance listed, in mol/kg
Conditions: 100 kPa, Liquid; for speed of sound: Frequency=3 MHz, Single path-length method; for mass density: Vibrating tube method

O=C([O-])CC(O)(CC(=O)[O-])C(=O)[O-].[NH4+].[NH4+].[NH4+] [ammonium 2-hydroxypropane-1,2,3-tricarboxylate] + O
Conditions | mass density, 288.15 K [kg/m3] | mass density, 298.15 K [kg/m3] | mass density, 308.15 K [kg/m3] | mass density, 318.15 K [kg/m3] | speed of sound, 288.15 K [m/s] | speed of sound, 298.15 K [m/s] | speed of sound, 308.15 K [m/s] | speed of sound, 318.15 K [m/s]
m1 = 0.2 | 1021.37 | 1019 | 1015.71 | 1011.75 | 1503.1 | 1532 | 1553.5 | 1569
m1 = 0.4 | 1043.45 | 1040.15 | 1037.34 | 1033.31 | 1540.4 | 1567.3 | 1587.8 | 1602.3
m1 = 0.6 | 1063.76 | 1060.41 | 1057.21 | 1052.93 | 1578.7 | 1603.6 | 1621.9 | 1635.4

O=C([O-])CC(O)(CC(=O)[O-])C(=O)[O-].[Li+].[Li+].[Li+] [trilithium citrate] + O
Conditions | mass density, 288.15 K [kg/m3] | mass density, 298.15 K [kg/m3] | mass density, 308.15 K [kg/m3] | mass density, 318.15 K [kg/m3] | speed of sound, 288.15 K [m/s] | speed of sound, 298.15 K [m/s] | speed of sound, 308.15 K [m/s] | speed of sound, 318.15 K [m/s]
m1 = 0.2 | 1027.21 | 1025.32 | 1021.67 | 1017.79 | 1509.2 | 1535.8 | 1556 | 1570.2
m1 = 0.4 | 1052.75 | 1050.41 | 1046.92 | 1042.96 | 1548 | 1572.6 | 1590.3 | 1602.4
m1 = 0.6 | 1078.28 | 1075.38 | 1071.84 | 1068 | 1589.2 | 1610.5 | 1625.9 | 1635.7

OC[C@H]1O[C@@](CO)(O[C@H]2O[C@H](CO)[C@@H](O)[C@H](O)[C@H]2O)[C@@H](O)[C@@H]1O [D-sucrose] + O
Conditions | mass density, 288.15 K [kg/m3] | mass density, 298.15 K [kg/m3] | mass density, 308.15 K [kg/m3] | mass density, 318.15 K [kg/m3] | speed of sound, 288.15 K [m/s] | speed of sound, 298.15 K [m/s] | speed of sound, 308.15 K [m/s] | speed of sound, 318.15 K [m/s]
m1 = 0.1002 | 1012.01 | 1009.81 | 1006.68 | 1002.77 | 1476.3 | 1506 | 1528.2 | 1544
m1 = 0.2007 | 1024.37 | 1022.04 | 1018.8 | 1014.82 | 1486.2 | 1515 | 1536.5 | 1552.6
m1 = 0.3011 | 1036.19 | 1033.73 | 1030.39 | 1026.34 | 1496 | 1524 | 1544.7 | 1560.1
m1 = 0.4034 | 1047.72 | 1045.13 | 1041.69 | 1037.58 | 1506 | 1533.2 | 1553.1 | 1567.7
m1 = 0.4996 | 1058.12 | 1055.43 | 1051.89 | 1047.73 | 1515.3 | 1541.7 | 1561 | 1576
m1 = 0.6018 | 1068.73 | 1065.92 | 1062.29 | 1058.07 | 1525.2 | 1550.6 | 1569.3 | 1584.2
m1 = 0.7022 | 1078.71 | 1075.81 | 1072.09 | 1067.82 | 1534.9 | 1559.3 | 1577.2 | 1592
m1 = 0.7978 | 1087.87 | 1084.86 | 1081.07 | 1076.72 | 1543.9 | 1567.4 | 1584.8 | 1599.6
m1 = 0.8955 | 1096.86 | 1093.77 | 1089.9 | 1085.49 | 1552.9 | 1575.6 | 1592.3 | 1606.7
m1 = 0.9969 | 1105.83 | 1102.65 | 1098.71 | 1094.23 | 1562.2 | 1583.8 | 1600.1 | 1614.4
